Literature values in patent publication US20090023644A1 (priority 2004, published 2009).
Read-outs that look alike come from different tables or passages of the source.

Columns and labels:
[1] = 8 ng/kg/min IV infusion for 8 hours
[2] = 600 ng/min
[3] = IV infusion 10 or 20 minutes at 0.8, 3.2 or 16 ng/kg/min

In the case of Calcitonin gene-related peptide [CGRP], the cardiac output [1] is listed as “increased”, the “pulmonary and systemic arterial pressure” value [1] is listed as “decreased” and the “time to loss of hemodynamic effects after stopping CGRP infusion” value [1] is listed as no more than 30 min. For the same substance, the vascular resistance [1] was “decreased”, the glomerular filtration ([1]; during treatment) was “increased” and the renal blood flow ([1]; during treatment) was “increased”. The “discontinuation of infusion due to nausea, diarrhea, and/or severe facial flushing” value ([2]; 48-hour continuous IV infusion) was “discontinued after 28 hours in 3 out of the 6 patients”, the “hemodynamic functions such as left ventricular function” value ([2]; pulsed therapy) was “improve” and the unfavorable side effects ([2]; pulsed therapy) was “tachycardia and neurohumoral response were also observed”. The tolerability ([2]; pulsed therapy (2-8 hour infusions for two consecutive days)) was “well tolerated”, the cardiac output [3] was “increase” and the systemic vascular resistance [3] was “decreased”. For the same substance, the tachycardia [3] was “no tachycardia observed”, the “type of vasodilator behaviour” value (at lower doses) was “pure arteriolar vasodilator” and the “type of vasodilator behaviour” value (at the higher dose) was “mixed vasodilator”.
